# In publication PMC4891189 (Pharmaceutical research, 2015):
# Entries after “also recorded” stand apart in the source; their conditions may differ.
# Columns and labels:
# [1] = PAMPA permeability at different pH
# P-gp (MDR1) = experiment: Bidirectional transport across MDCK-MDR1 cell monolayers; type: in vitro ADME, canine; settings: dog
# [2] = system: MDCK-MDR1 cell monolayers; experiment: as above; type: in vitro ADME, canine
# P-gp [3] = experiment: Bidirectional transport across Caco-2 cell monolayers; settings: human
# hemodynamic effects = settings: healthy subjects ref 8; cited from earlier work
# rat jejunum [4] = system: rat jejunum
# beta-blocking activity = settings: animal studies ref 7; cited from earlier work
# Caco-2 cell monolayers = experiment: Bidirectional transport across Caco-2 cell monolayers; settings: 50 µM
# rat jejunum [5] = experiment: Transport study in rat jejunum Ussing chamber; settings: after 90 min, leakage indicator
# [6] = cited from earlier work
# [7] = oral administration, after first-pass metabolism; cited from earlier work
# human jejunum = settings: single-pass perfusion, healthy volunteers ref 9; cited from earlier work
# P-gp [8] = settings: mdr1a (−/−) mice intestine ref 29; cited from earlier work
# [9] = MDCK-MDR1, pH 7.4, with GG918 0.5 µM
# [10] = Caco-2, pH 7.4, with GG918 0.5 µM
# [11] = 50 µM, MDCK-MDR1, pH 7.4, GG918 0.5 µM
smiles,measurement,setting,value
"C[C@H]1O[C@@H](O[C@H]2[C@@H](O)C[C@H](O[C@H]3[C@@H](O)C[C@H](O[C@H]4CC[C@@]5(C)[C@H](CC[C@@H]6[C@@H]5C[C@@H](O)[C@]5(C)[C@@H](C7=CC(=O)OC7)CC[C@]65O)C4)O[C@@H]3C)O[C@@H]2C)C[C@H](O)[C@@H]1O [Digoxin, digoxin]",effect of apical pH on permeability,[1]; 5 µM digoxin,no statistical differences; also recorded: did not show different permeability results
same,"Papp A→B at 120 min, 0.01 µM","P-gp (MDR1); MDCK-MDR1, pH 7.4",0.26 ± 0.02 ×10⁻⁶ cm/s
same,"Papp B→A at 120 min, 0.01 µM","P-gp (MDR1); MDCK-MDR1, pH 7.4",2 ± 0.01 ×10⁻⁶ cm/s
same,"Papp A→B at 120 min, 0.01 µM",P-gp (MDR1); [9],0.41 ± 0.1 ×10⁻⁶ cm/s
same,"Papp B→A at 120 min, 0.01 µM",P-gp (MDR1); [9],0.67 ± 0.06 ×10⁻⁶ cm/s
same,"efflux ratio at 120 min, 0.01 µM","P-gp (MDR1); MDCK-MDR1, pH 7.4, with GG918 0.5 µM, Efflux Ratio, Digoxin 0.01 µM, MDR1-MDCK cells, +GG918 0.5 µM",< 2
same,Efflux Ratio,"[2]; Digoxin 0.01 µM, MDR1-MDCK cells, +GG918 0.5 µM",1.52±0.16
same,"Papp A→B at 120 min, 0.01 µM","P-gp [3]; Caco-2, pH 7.4",0.64 ± 0.03 ×10⁻⁶ cm/s
same,"Papp B→A at 120 min, 0.01 µM","P-gp [3]; Caco-2, pH 7.4",1.64 ± 0.13 ×10⁻⁶ cm/s
same,"efflux ratio at 120 min, 0.01 µM","P-gp [3]; Caco-2, pH 7.4",2.57 ± 0.33
same,"Papp A→B at 120 min, 0.01 µM",P-gp [3]; [10],1.17 ± 0.07 ×10⁻⁶ cm/s
same,"Papp B→A at 120 min, 0.01 µM",P-gp [3]; [10],1.19 ± 0.05 ×10⁻⁶ cm/s
same,"efflux ratio at 120 min, 0.01 µM",P-gp [3]; [10],< 2
CC(C)NC[C@@H](O)COc1cccc2ccccc12 [R-propranolol],hemodynamic effects,hemodynamic effects,ineffective
CC(C)NCC(O)COc1cccc2ccccc12 (centres unmarked) [S-propranolol],effect of verapamil on Papp in the absorptive direction,rat jejunum [4]; not told,did not alter
same,change of Papp mucosal to serosal (absorption) with mucosal pH,rat jejunum [4]; pH 6.5,statistically significant decrease
same,effect of mucosal pH on serosal to mucosal permeability (secretion),rat jejunum [4]; pH 6.5,didn’t significantly affect
same,mass retention,[1]; 25 nM,58±4%
same,mass retention,[1]; 50 µM,12%±1
same,permeability compared with high permeability standard labetalol,"[1]; 50 µM each, pH 7.4 both sides",higher permeability than 50 µM labetalol
same,"simulated efflux ratio (Papp, B->A/ Papp, A->B)","[1]; 50 µM, apical pH 6.5, basolateral pH 7.4",3.39
same,"simulated efflux ratio (Papp, B->A/ Papp, A->B)","[1]; 50 µM, apical pH 7.4, basolateral pH 7.4",1
same,"Papp, A->B","[1]; 50 µM, pH 6.5→pH 7.4",8.1±0.3 × 10^−6 cm/sec
same,"simulated Papp, B->A","[1]; 50 µM, pH 7.4→pH 6.5",27.3±0.4 × 10^−6 cm/sec
same,Papp,"[1]; 50 µM, pH 7.4→pH 7.4",19.2±2.6 × 10^−6 cm/sec
same,mass retention,[1]; 100 µM,8%±1
same,pH dependent transcellular permeability at 100 µM compared with 50 µM,[1]; 100 µM,almost identical to that observed at 50 µM
same,effect of GG918 on basolateral and apical permeabilities,"[2]; 25 nM, MDCK-MDR1, pH 7.4 on both sides",no effect of GG918 was observed
same,"Papp, A->B in the presence of GG918","[2]; 50 µM, MDCK-MDR1, apical pH 6.5",decreased significantly
same,"Papp, A→B in the absence or presence of GG918",[2]; [11],unexplained significant difference
same,basolateral to apical efflux in the absence or presence of GG918,[2]; [11],no significant differences
same,"beta-blocking activity, times more potent than R-propranolol",beta-blocking activity,100 times
same,"change of Papp, A->B as apical pH changed from 7.4 to 6.5",Caco-2 cell monolayers; Caco-2,markedly decreased
same,"change of Papp, B->A as apical pH changed from 7.4 to 6.5",Caco-2 cell monolayers; Caco-2,significantly increased
same,"Papp, A->B in the presence of GG918","Caco-2 cell monolayers; Caco-2, apical pH 6.5",small but significant increase
same,basolateral to apical efflux in the presence or absence of GG918,"Caco-2 cell monolayers; Caco-2, apical pH 6.5",no significant differences
O=S1(=O)OC(c2ccc(O)cc2)(c2ccc(O)cc2)c2ccccc21 [phenol red],permeated from the mucosal to serosal side,rat jejunum [5],less than 1%
CC(C)NCC(O)COc1cccc2ccccc12.Cl (centres unmarked) [propranolol HCl],dose number,[6],0.006
CC(C)NCC(O)COc1cccc2ccccc12 (centres unmarked) [propranolol],dose reaching the systemic circulation unchanged,[7],25%
same,effective permeability,human jejunum,280 ×10⁻⁶ cm/s
same,"permeability, P-gp expressed vs knocked out",P-gp [8],not influenced
